Data: PMC11945475, “Nasal Administration of a Nanoemulsion Based on Methyl Ferulate and Eugenol Encapsulated in Chitosan Oleate: Uptake Studies in the Central Nervous System” (Pharmaceutics, 2025)
Where two headings read alike, the source gives them in different places.

What was measured:
[1] = for remaining percentage (residual % content) in NE: 672 h; for content in CS-OA NE used for cellular and in vivo studies / loading in NE: CS-OA NE; for final concentration in NE: loaded in CS-OA NE, immediately after preparation, four batches
Description: The eugenol and Fer-Me quantification was performed using an HPLC apparatus, coupled with a UV-Vis Variable Wavelength Detector equipped with a deuterium lamp with a wavelength accuracy of ±1 nm (Agilent 1100 Series, model G1314A, Santa Clara, CA, USA). The mobile phase was constituted by a mixture of CH3CN and H2O 38:62 (v/v) acidified with formic acid at pH 3.25, the flow rate was maintained at 1 mL/min, and separations were performed at room temperature on a 150 mm × 4.6 mm, […]. SUPELCOSIL^TM LC-18 endcapped silica column (Supelco®, Merck, Milan, Italy). Eugenol was detected at a wavelength of 210 nm, while Fer-Me was detected at 320 nm. The injection volume was 20 µL for each sample. […] An ANOVA was performed to assess the feasibility of averaging the peak area values across three calibration curves for both the analytes. […] Both standard curve and NE samples were injected after dilution in a mixture of mobile phase and acetate buffer (5 mM); every analysis on each sample was done in triplicate.
The yield of the process was verified by quantifying by HPLC analysis Fer-Me and eugenol loaded into the CS-OA NEs immediately after preparation and after 1, 2, and 4 weeks of storage at 4 °C. […] Fer-Me and eugenol were quantified by the HPLC method into the external aqueous phase, passing through the membrane as permeate.

in vivo = details: rat; for AUC / Cmax / Tmax: nasal CS-OA NE, Fer-Me 0.4 mg/kg and eugenol 0.8 mg/kg
Description: Fer-Me and eugenol were nasally co-administered as loaded in CS-OA NE to evaluate their concentration–time profiles in male Sprague-Dawley rats’ (200–250 g body weight; Charles River laboratories, Calco, Italy) bloodstream and CSF. The results were compared with those obtained by the rat intravenous administrations of Fer-Me (10 mg/kg; present study), and 20 mg/kg of eugenol. The sample size (4 rats/group) has been chosen based on our previous studies. The experimental procedures were approved by the Italian Ministry of Health and were performed in accordance with the European Communities Council Directive of September 2010 (2010/63/EU). According to the ARRIVE guidelines, all possible efforts were made to minimize animal pain and discomfort and to reduce the number of experimental subjects.
Fer-Me and eugenol were nasally co-administered to rats at the doses of 0.4 mg/kg (about 0.1 mg/rat) and 0.8 mg/kg (about 0.2 mg/rat), respectively, as encapsulated in CS-OA NE (Fer-Me content about 1 mg/mL; eugenol content about 2 mg/mL). A group of four rats anesthetized and laid on their backs (weighing approximately 250 g) received CS-OA NE after being fasted for 12 h. In particular, each rat received 50 μL of CS-OA NE formulation in each nostril. The nasal administration was carried out using a semiautomatic pipette connected to a short polyethylene tubing, which was inserted about 0.6 to 0.7 cm into each nostril. Following the administration, blood samples (100 μL) were collected at predetermined time points, along with CSF samples (30 μL). The blood samples (n = 4 for timepoint) were immediately mixed with 200 μL of ice-cold CH3CN and then 100 μL of internal standard (100 μM BNZ in CH3CN) was added. These samples were centrifuged at 12,500× g for 5 min. About 300 μL of the supernatant was then withdrawn and centrifuged again. Finally, 10 μL of the resultant sample was analyzed using HPLC for the quantification of Fer-Me and eugenol.
The HPLC apparatus was the same used for the uptake experiments with RPMI 2650 cells (Section 2.3.3). […] Calibration curves of peak areas versus concentration in the range 0.5 to 10 μM for Fer-Me (0.10 to 2.08 μg/mL), and eugenol (0.08 to 1.64 μg/mL), obtained dissolving the compounds in simulated CSF, were linear (n = 8, r ≥ 0.996, p < 0.0001). […] Therefore, the concentrations of these compounds determined in whole blood were referred to as the peak area ratio with respect to the internal standard BNZ. Eight different concentrations in rat whole blood at 4 °C, ranging from 0.5 to 50 μM for Fer-Me (0.10 to 10.41 μg/mL) and eugenol (0.08 to 8.21 μg/mL) were used to generate calibration curves in this biological system, which were linear (n = 8, r ≥ 0.990, p < 0.001).
Fer-Me in vivo half-life (t1/2) in the rats’ bloodstream was determined using nonlinear regression (exponential decay) of concentration values quantified at appropriate time intervals after infusion, further validated by applying linear regression to the semi-logarithmic plot. The area under the concentration–time curves (AUC, μg∙mL^−1∙min) in rat bloodstreams or CSF, following Fer-Me intravenous administration or CA-OA NE nasal administration, were calculated using the trapezoidal method.
Following the nasal administration of CS-OA NE, the absolute bioavailability (F) values of Fer-Me and eugenol were calculated as the ratio of the nasal AUC to the intravenous AUC values measured in the bloodstream, normalized to the respective doses, according to Equation (3):(3) F=AUCnasal/AUCIV·doseIV/dosenasal GraphPad Prism version 7.0 (GraphPad Software, San Diego, CA, USA) was used for all calculations.

| SMILES | remaining percentage (residual % content) in NE [1] | content in CS-OA NE used for cellular and in vivo studies [1] | loading in NE [1] | final concentration in NE [1] | CSF bioavailability (AUC) after nasal CS-OA NE relative to intravenous administration (in vivo) | absolute bioavailability F (bloodstream) (in vivo) [%] | time at which CSF concentration decreased to zero (permanence in the CSF) (in vivo) [min] | time within which plasma concentration decreased to zero (in vivo) [min] | Tmax in CSF (in vivo; inhaled or intranasal) [min] | Tmax in the bloodstream (in vivo; inhaled or intranasal) [min] | bioavailability (in vivo; male, Sprague-Dawley, 0.8 mg/kg, nasal CS-OA NE vs intravenous, dose-normalized, read-out: absolute bioavailability F (bloodstream)) [%] | time at which CSF concentration decreased to zero (permanence in the CSF) (in vivo; male, Sprague-Dawley) [min] | time within which plasma concentration decreased to zero (in vivo; male, Sprague-Dawley) [min] | AUC (in vivo; male, Sprague-Dawley, inhaled or intranasal, 0.8 mg/kg, read-out: AUC in CSF (converted)) [ng·h/mL] | AUC (in vivo; male, Sprague-Dawley, inhaled or intranasal, 0.8 mg/kg, read-out: AUC in the bloodstream (converted)) [ng·h/mL] | Cmax (in vivo; male, Sprague-Dawley, inhaled or intranasal, 0.8 mg/kg, read-out: Cmax in CSF) [ng/mL] | Cmax (in vivo; male, Sprague-Dawley, inhaled or intranasal, 0.8 mg/kg, read-out: Cmax in the bloodstream) [ng/mL] | Tmax (in vivo; male, Sprague-Dawley, inhaled or intranasal, 0.8 mg/kg, read-out: Tmax in CSF (converted)) [min] | Tmax (in vivo; male, Sprague-Dawley, inhaled or intranasal, 0.8 mg/kg, read-out: Tmax in the bloodstream (converted)) [min] |
| --- | --- | --- | --- | --- | --- | --- | --- | --- | --- | --- | --- | --- | --- | --- | --- | --- | --- | --- | --- |
| COC(=O)/C=C/c1ccc(O)c(OC)c1 [Fer-Me, methyl ferulate] | about 81% | about 5 mM | about 1 mg/mL | 123.0 ± 0.2 µg per 100 µL of NE | about 30 times | 56 | 120 | ≤ 90 | 20 | 40 |  |  |  |  |  |  |  |  |  |
| C=CCc1ccc(O)c(OC)c1 [eugenol] | about 71% | ~12 mM | ~2 mg/mL | 260.0 ± 0.5 µg per 100 µL of NE |  |  |  |  |  |  | 95 | 120 | ≤ 90 | 1060 | 111 | 1050 ± 80 | 150 ± 10 | 20 | 40 |
